Key:
CD11b+ monocytes = test: In vivo uptake assay of Aβ42 after immunization or passive immunotherapy; parameters: species or system C57BL/6 mice; settings: Example 20
Protocol: Mice: C57BL/6 female mice were purchased from Charles River. […]
[…] At day 22, 5 μg per mouse of fluorescent HiLyte Fluor™ 488-labeled Amyloid β1-42 (Anaspec, Fremont, Calif.) was injected in the tail vein. […] Plasma of pooled blood was decanted and saved for measurement of antibody titres by ELISA. Red blood cell lysis was performed twice with Ammonium Chloride-based Buffer (Sigma, Steinheim, Germany) and cells were counted with the EasyCount™ System (Immunicon).
FACS analysis: 500,000 cells were aliquoted in a 96-well plate, washed once, incubated for 10 min. on ice in the presence of Rat anti-Mouse CD16/CD32 (clone 2.4G2—BD Fc Block™) and further stained for 30 min. with a combination of the following directly conjugated antibodies at their pre-determined optimal concentration: PE-Hamster anti-Mouse CD3 (clone 145-2C11), Rat anti-Mouse CD45R/B220 (clone RA3-6B2), Rat anti-Mouse Ly-6G (clone 1A8), Mouse anti-Mouse NK1.1 (clone PK136), APC-conjugated Rat anti-Mouse CD11b (clone M1/70), PE-Cy7-conjugated Hamster anti-Mouse CD11c (clone HL3), (all from BD PharMingen). Cells were finally washed twice and fixed for 15 min. with a 2% paraformaldehyde solution in PBS. FMOs controls were always included in the assays.
Samples were acquired on a flow cytometer (BD FACSCanto II) and data analyzed with the FACSDiva software (BD Biosciences).
Monocytes were identified by their Side/Forward scatter properties, excluding debris and gated as CD3-/CD45R/B220-/Ly-6G-/NK1.1-(Lineage-)/CD11b+ cells. Aβ uptake was assessed by reporting the percentage and Mean Fluorescence Intensity (GeoMean) of positive HiLyte Fluor™ 488 Aβ1-42 cells among gated monocytes.
Mice were passively immunized with a constant dose of anti Aβ monoclonal antibody (15 ug of 2E7)+different dose of immunomodulators (CRX601 or CRX601/AS03 or AS01B). […] Red blood cell lysis was performed twice with Ammonium Chloride-based Buffer (Sigma, Steinheim, Germany) and cells were counted with the EasyCount™ System (Immunicon). […]

[1] = tested on: spatial learning and memory; test: T-water maze in APP/PS1 mice; format: in vivo, APPSwe/PS1 mice
Protocol: Five groups of APPSwe/PS1 mice received one a week for a period of 12 weeks the following treatment: • Gr1: APPSwe/PS1+NaCl 0.9% n(=20), i.p. injections • Gr4: APPSwe/PS1+CRX527 (20 μg/mouse, 130 μl, n=10), i.p. injections • Gr5: […] (50 μg/mouse, 130 μl, n=10), i.p. injections • Gr8 APPSwe/PS1+AS15 ( 1/10th of human dose, 50 μl, n=10), i.m. injections • Gr9: APPSwe/PS1+AS01B ( 1/10th of human dose, 50 μl, n=10), i.m. injections
Mice were tested during the “light on” phase of the day. Behavioral experimenter was blinded to the genetic and treatment status of animals. To assess hippocampal-dependent spatial learning and memory, mice were trained in the T-water maze task. In this paradigm, we evaluate the mouse's ability to remember the spatial location of submerged platform. The T-maze apparatus (length of stem, 64 cm; length of arms, 30 cm; width, 12 cm; height of walls, 16 cm) was made of clear fiberglass and filled with water (23±1° C.) at a height of 12 cm. A platform (11×11 cm) was placed at the end of the target arm and was submerged 1 cm below the surface. The acquisition phase allows to evaluate animals for left-right spatial learning. During the first two trials, platforms were placed on each arms of the maze to test the spontaneous turning preference of the mouse. After these two trials, the least chosen arm was reinforced by the escape platform. The mice were placed in the stem of the T-maze and choose to swim either left or right until they found the submerged platform and escape to it, to a maximum of 60 s. After reaching the platform, the mice remained on it for 20 s and then were immediately placed back in the maze. […] Repeated trials were presented on the same day up to a maximum of 48 trials. A rest period of at least 10-15 min intervened between each block of 10 trials. A mouse was considered to have learned the task when it made no errors in a block of five consecutive trials. The reversal learning phase was then conducted 48 h later. During this phase, the same protocol was repeated, except that the mice were trained to find the escape platform on the opposite side to that on which they had learned on acquisition phase. The number of trials to reach the criterion (five of five correct choices made on consecutive trials) was measured as well as the latency to find the escape platform.

## CCCCCCCCCCC[C@H](CC(=O)N[C@H]1[C@H](OC[C@H](NC(=O)C[C@@H](CCCCCCCCCCC)OCCCCCCCCCC)C(=O)O)O[C@H](CO)[C@@H](OP(=O)(O)O)[C@@H]1OC(=O)C[C@@H](CCCCCCCCCCC)OCCCCCCCCCC)OCCCCCCCCCC [CRX601]
CD11b+ monocytes; CRX601 20 ug with AS03
  antibody-mediated Aβ uptake when combined with AS03 emulsion: partially quenched
CD11b+ monocytes; CRX601 at 20 ug single i.m., 15 ug of 2E7, 24 hrs
  antibody-mediated Aβ uptake: highest Aβ uptake
CD11b+ monocytes; different doses, constant 2E7
  dose dependence of antibody-mediated Aβ uptake: Dose-response observed
[1]; Example 21, twelve weekly injections, vs non treated mice
  behaviour as assessed by T water maze testing: significant improvements in behaviour
[1]; Example 22, i.m. 12x weekly, CRX601 2 μg, CRX601 2 ug in AS03, 3D MPL 5 ug, AS01B 1/10 human dose, vs PBS, unpaired t-tests
  cognitive functions, T-water maze: significant improvement of their cognitive functions

Source: US20140294849A1, “COMPOSITIONS AND USES” (GLAXOSMITHKLINE BIOLOGICALS SA, priority 2011, published 2014)
